Legend:
Thalamus [1] = test: Biodistribution in Wistar rat thalamus at 41 MBq, iv measured at 12 to 28 mins post administration by microPET imaging in presence of JNJ-40068782; format: ADME, organism-based; conditions: in vivo
Hippocampus [2] = test: Biodistribution in Wistar rat hippocampus at 41 MBq, iv measured at 12 to 28 mins post administration by microPET imaging in presence of JNJ-40068782; format: ADME, organism-based; conditions: in vivo
Cortex [3] = test: Biodistribution in Wistar rat cortex at 41 MBq, iv measured at 12 to 28 mins post administration by microPET imaging in presence of JNJ-40068782; format: ADME, organism-based; conditions: in vivo
Cerebellum [4] = test: Biodistribution in Wistar rat cerebellum at 41 MBq, iv measured at 12 to 28 mins post administration by microPET imaging in presence of JNJ-40068782; format: ADME, organism-based; conditions: in vivo
Striatum [5] = test: Biodistribution in Wistar rat striatum at 41 MBq, iv measured at 12 to 28 mins post administration by microPET imaging in presence of JNJ-40068782; format: ADME, organism-based; conditions: in vivo
Thalamus [6] = test: Biodistribution in Wistar rat thalamus at 41 MBq, iv measured at 12 to 28 mins post administration by microPET imaging; format: ADME, organism-based; conditions: in vivo
Hippocampus [7] = test: Biodistribution in Wistar rat hippocampus at 41 MBq, iv measured at 12 to 28 mins post administration by microPET imaging; format: ADME, organism-based; conditions: in vivo
Cortex [8] = test: Biodistribution in Wistar rat cortex at 41 MBq, iv measured at 12 to 28 mins post administration by microPET imaging; format: ADME, organism-based; conditions: in vivo
Cerebellum [9] = test: Biodistribution in Wistar rat cerebellum at 41 MBq, iv measured at 12 to 28 mins post administration by microPET imaging; format: ADME, organism-based; conditions: in vivo
Striatum [10] = test: Biodistribution in Wistar rat striatum at 41 MBq, iv measured at 12 to 28 mins post administration by microPET imaging; format: ADME, organism-based; conditions: in vivo
Brain [11] = test: Biodistribution in Wistar rat brain at 41 MBq, iv measured at 27 mins post administration by microPET imaging; format: ADME, organism-based; conditions: in vivo, 0.45 h
Brain [12] = test: Biodistribution in Wistar rat brain at 41 MBq, iv measured at 12 mins post administration by microPET imaging; format: ADME, organism-based; conditions: in vivo, 0.2 h
[13] = Metabolic stability in Wistar rat cerebellum assessed as intact tracer at 74 MBq, iv measured at 30 mins post administration by gamma counting; format: ADME, organism-based; conditions: read-out: Stability
[14] = Metabolic stability in Wistar rat cerebrum assessed as intact tracer at 74 MBq, iv measured at 30 mins post administration by gamma counting; format: ADME, organism-based; conditions: read-out: Stability
[15] = Metabolic stability in Wistar rat plasma assessed as intact tracer at 74 MBq, iv measured at 30 mins post administration by gamma counting; format: ADME, organism-based; conditions: read-out: Stability
Rattus norvegicus = test: Biodistribution in Wistar rat urinary system at 22 Mbq, iv measured at 60 mins post administration by gamma counting; format: ADME, organism-based, Urine; conditions: in vivo, 1 h
Liver = test: Biodistribution in Wistar rat liver at 22 Mbq, iv measured at 60 mins post administration by gamma counting; format: ADME, organism-based; conditions: in vivo, 1 h
Intestine = test: Biodistribution in Wistar rat intestine at 22 Mbq, iv measured at 60 mins post administration by gamma counting; format: ADME, organism-based; conditions: in vivo, 1 h
Blood [16] = test: Biodistribution in Wistar rat blood at 22 Mbq, iv measured at 60 mins post administration by gamma counting; format: ADME, organism-based; conditions: in vivo, 1 h
Brain [17] = test: Ratio of SUV in total brain in iv dosed Wistar at 2 mins post administration by gamma counting to SUV in total brain in iv dosed Wistar at 30 mins post administration by gamma counting; format: ADME, organism-based; conditions: rat, in vivo
Blood [18] = test: Biodistribution in Wistar rat blood at 22 Mbq, iv measured at 2 mins post administration by gamma counting; format: ADME, organism-based; conditions: in vivo
Cerebellum [19] = test: Ratio of SUV in cerebellum in iv dosed Wistar at 2 mins post administration by gamma counting to SUV in cerebellum in iv dosed Wistar at 30 mins post administration by gamma counting; format: ADME, organism-based; conditions: rat, in vivo
Cerebrum [20] = test: Ratio of SUV in cerebrum in iv dosed Wistar at 2 mins post administration by gamma counting to SUV in cerebrum in iv dosed Wistar at 30 mins post administration by gamma counting; format: ADME, organism-based; conditions: rat, in vivo
Cortex [21] = test: Ratio of SUV in cortex in iv dosed Wistar at 2 mins post administration by gamma counting to SUV in cortex in iv dosed Wistar at 30 mins post administration by gamma counting; format: ADME, organism-based; conditions: rat, in vivo
Hippocampus [22] = test: Ratio of SUV in hippocampus in iv dosed Wistar at 2 mins post administration by gamma counting to SUV in hippocampus in iv dosed Wistar at 30 mins post administration by gamma counting; format: ADME, organism-based; conditions: rat, in vivo
Striatum [23] = test: Ratio of SUV in striatum in iv dosed Wistar at 2 mins post administration by gamma counting to SUV in striatum in iv dosed Wistar at 30 mins post administration by gamma counting; format: ADME, organism-based; conditions: rat, in vivo
Brain [24] = test: Biodistribution in iv dosed Wistar rat total brain measured at 60 mins post administration by gamma counting; format: ADME, organism-based; conditions: in vivo, 1 h
Blood [25] = test: Biodistribution in iv dosed Wistar rat blood measured at 60 mins post administration by gamma counting; format: ADME, organism-based; conditions: in vivo, 1 h
Cerebellum [26] = test: Biodistribution in iv dosed Wistar rat cerebellum measured at 60 mins post administration by gamma counting; format: ADME, organism-based; conditions: in vivo, 1 h
Cortex [27] = test: Biodistribution in iv dosed Wistar rat cortex measured at 60 mins post administration by gamma counting; format: ADME, organism-based; conditions: in vivo, 1 h
Cerebrum [28] = test: Biodistribution in iv dosed Wistar rat cerebrum measured at 60 mins post administration by gamma counting; format: ADME, organism-based; conditions: in vivo, 1 h
Hippocampus [29] = test: Biodistribution in iv dosed Wistar rat hippocampus measured at 60 mins post administration by gamma counting; format: ADME, organism-based; conditions: in vivo, 1 h
Blood [30] = test: Biodistribution in iv dosed Wistar rat blood measured at 30 mins post administration by gamma counting; format: ADME, organism-based; conditions: in vivo, 0.5 h
Striatum [31] = test: Biodistribution in iv dosed Wistar rat striatum measured at 60 mins post administration by gamma counting; format: ADME, organism-based; conditions: in vivo, 1 h
Brain [32] = test: Biodistribution in iv dosed Wistar rat total brain measured at 30 mins post administration by gamma counting; format: ADME, organism-based; conditions: in vivo, 0.5 h
Cerebrum [33] = test: Biodistribution in iv dosed Wistar rat cerebrum measured at 30 mins post administration by gamma counting; format: ADME, organism-based; conditions: in vivo, 0.5 h
Cerebellum [34] = test: Biodistribution in iv dosed Wistar rat cerebellum measured at 30 mins post administration by gamma counting; format: ADME, organism-based; conditions: in vivo, 0.5 h
Cortex [35] = test: Biodistribution in iv dosed Wistar rat cortex measured at 30 mins post administration by gamma counting; format: ADME, organism-based; conditions: in vivo, 0.5 h
Hippocampus [36] = test: Biodistribution in iv dosed Wistar rat hippocampus measured at 30 mins post administration by gamma counting; format: ADME, organism-based; conditions: in vivo, 0.5 h
Blood [37] = test: Biodistribution in iv dosed Wistar rat blood measured at 2 mins post administration by gamma counting; format: ADME, organism-based; conditions: in vivo
Striatum [38] = test: Biodistribution in iv dosed Wistar rat striatum measured at 30 mins post administration by gamma counting; format: ADME, organism-based; conditions: in vivo, 0.5 h
Cerebellum [39] = test: Biodistribution in iv dosed Wistar rat cerebellum measured at 2 mins post administration by gamma counting; format: ADME, organism-based; conditions: in vivo
Brain [40] = test: Biodistribution in iv dosed Wistar rat total brain measured at 2 mins post administration by gamma counting; format: ADME, organism-based; conditions: in vivo
Cerebrum [41] = test: Biodistribution in iv dosed Wistar rat cerebrum measured at 2 mins post administration by gamma counting; format: ADME, organism-based; conditions: in vivo
Hippocampus [42] = test: Biodistribution in iv dosed Wistar rat hippocampus measured at 2 mins post administration by gamma counting; format: ADME, organism-based; conditions: in vivo
Cortex [43] = test: Biodistribution in iv dosed Wistar rat cortex measured at 2 mins post administration by gamma counting; format: ADME, organism-based; conditions: in vivo
Striatum [44] = test: Biodistribution in iv dosed Wistar rat striatum measured at 2 mins post administration by gamma counting; format: ADME, organism-based; conditions: in vivo
Cerebellum [45] = test: Biodistribution in Wistar rat cerebellum at 22 Mbq, iv measured at 2 mins post administration by gamma counting; format: ADME, organism-based; conditions: in vivo
Cerebrum [46] = test: Biodistribution in Wistar rat cerebrum at 22 Mbq, iv measured at 2 mins post administration by gamma counting; format: ADME, organism-based; conditions: in vivo
Brain [47] = test: Biodistribution in Wistar rat brain at 22 Mbq, iv measured at 2 mins post administration by gamma counting; format: ADME, organism-based; conditions: in vivo

Q: For [11CH3]Oc1c(F)ccc(F)c1C1CCN(c2ccn3c(CC4CC4)nnc3c2Cl)CC1, which Drug uptake (Thalamus [1]) is on record?
A: The Drug uptake was “Not Active”.

Q: What about the Drug uptake (Hippocampus [2]) of the same molecule?
A: The Drug uptake was “Not Active”.

Q: And the Drug uptake (Cortex [3])?
A: Its Drug uptake is “Not Active”.

Q: And the Drug uptake (Cerebellum [4])?
A: The Drug uptake was “Not Active”.

Q: What about the Drug uptake (Striatum [5]) of the same molecule?
A: Its Drug uptake is “Not Active”.

Q: What about the Drug uptake (Thalamus [6]) of the same molecule?
A: Its Drug uptake is “Active”.

Q: What about the Drug uptake (Hippocampus [7]) of the same molecule?
A: Its Drug uptake is “Active”.

Q: What about the Drug uptake (Cortex [8]) of the same molecule?
A: Its Drug uptake is “Active”.

Q: What about the Drug uptake (Cerebellum [9]) of the same molecule?
A: The Drug uptake was “Active”.

Q: And the Drug uptake (Striatum [10])?
A: The Drug uptake was “Active”.

Q: What about the SUV (Brain [11]) of the same molecule?
A: Its SUV is 1.7.

Q: What about the SUV (Brain [12]) of the same molecule?
A: Its SUV is 1.7.

Q: And the remaining at 0.5 h [13]?
A: The remaining at 0.5 h was 95.5%.

Q: And the remaining at 0.5 h [14]?
A: The remaining at 0.5 h was 90.3%.

Q: What about the remaining at 0.5 h [15] of the same molecule?
A: Its remaining at 0.5 h is 69.7%.

Q: And the Drug uptake (Rattus norvegicus)?
A: Its Drug uptake is 2.4 %ID.

Q: What about the Drug uptake (Liver) of the same molecule?
A: The Drug uptake was 35.7%.

Q: What about the Drug uptake (Intestine) of the same molecule?
A: The Drug uptake was 35.7%.

Q: And the Drug uptake (Blood [16])?
A: Its Drug uptake is 2 %ID.

Q: What about the Ratio (Brain [17]) of the same molecule?
A: Its Ratio is 0.65.

Q: And the Drug uptake (Blood [18])?
A: The Drug uptake was 4.3 %ID.

Q: And the Ratio (Cerebellum [19])?
A: Its Ratio is 0.61.

Q: And the Ratio (Cerebrum [20])?
A: Its Ratio is 0.67.

Q: What about the Ratio (Cortex [21]) of the same molecule?
A: Its Ratio is 0.82.

Q: What about the Ratio (Hippocampus [22]) of the same molecule?
A: The Ratio was 0.6.

Q: And the Ratio (Striatum [23])?
A: Its Ratio is 0.57.

Q: What about the SUV (Brain [24]) of the same molecule?
A: Its SUV is 1.18.

Q: What about the SUV (Blood [25]) of the same molecule?
A: Its SUV is 0.28.

Q: What about the SUV (Cerebellum [26]) of the same molecule?
A: Its SUV is 1.75.

Q: And the SUV (Cortex [27])?
A: Its SUV is 1.28.

Q: And the SUV (Cerebrum [28])?
A: The SUV was 1.11.

Q: And the SUV (Hippocampus [29])?
A: The SUV was 0.73.

Q: And the SUV (Blood [30])?
A: Its SUV is 0.39.

Q: What about the SUV (Striatum [31]) of the same molecule?
A: The SUV was 1.72.

Q: And the SUV (Brain [32])?
A: The SUV was 2.13.

Q: And the SUV (Cerebrum [33])?
A: Its SUV is 1.96.

Q: What about the SUV (Cerebellum [34]) of the same molecule?
A: The SUV was 2.62.

Q: What about the SUV (Cortex [35]) of the same molecule?
A: Its SUV is 1.77.

Q: What about the SUV (Hippocampus [36]) of the same molecule?
A: The SUV was 1.49.

Q: What about the SUV (Blood [37]) of the same molecule?
A: The SUV was 0.61.

Q: What about the SUV (Striatum [38]) of the same molecule?
A: Its SUV is 2.14.

Q: And the SUV (Cerebellum [39])?
A: Its SUV is 1.59.

Q: What about the SUV (Brain [40]) of the same molecule?
A: Its SUV is 1.39.

Q: What about the SUV (Cerebrum [41]) of the same molecule?
A: Its SUV is 1.32.

Q: And the SUV (Hippocampus [42])?
A: The SUV was 0.9.

Q: What about the SUV (Cortex [43]) of the same molecule?
A: Its SUV is 1.46.

Q: What about the SUV (Striatum [44]) of the same molecule?
A: The SUV was 1.22.

Q: What about the Drug uptake (Cerebellum [45]) of the same molecule?
A: Its Drug uptake is 0.17 %ID.

Q: What about the Drug uptake (Cerebrum [46]) of the same molecule?
A: The Drug uptake was 0.69 %ID.

Q: And the Drug uptake (Brain [47])?
A: Its Drug uptake is 0.88 %ID.

Reference: ChEMBL document CHEMBL2202996, “Synthesis, evaluation, and radiolabeling of new potent positive allosteric modulators of the metabotropic glutamate receptor 2 as potential tracers for positron emission tomography imaging” (J Med Chem, 2012)
